Data reported in patent USRE47689E1, “Compounds for treating spinal muscular atrophy” (PTC Therapeutics, Inc., priority 2011, dated 2019).

Columns and labels:
[1] = test system: SMN2 minigene (full length SMN2 minigene mRNA containing SMN2 exon 7); experiment: SMN2 minigene mRNA splicing RT-qPCR assay in cultured cells; type: cell-based, human; conditions: Homo sapiens, HEK293-H; HEK293H cells stably transfected with SMN2-A minigene; 24 hours; 7-point concentration curve; 1.5-fold relative to vehicle-treated cells; read-out: EC1.5x for production of full length SMN2 mRNA
In short: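 HEK293H cells stably carrying the SMN2-A minigene treated 24 h at 37° C with compound (DMSO, 200× stock), then lysed. Multiplex RT-qPCR (SMN primers 0.4 μM final; 40 cycles) measures full-length exon 7-containing minigene mRNA, normalized to GAPDH and to vehicle; EC1.5x derived and binned by stars.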

Smn protein = Smn protein assay in cultured cells (SMN HTRF); type: cell-based, human; conditions: 48 hours; for maximum fold (Fold) increase of Smn protein: SMA patient fibroblast cells, 7-point concentration data, fold increase relative to vehicle control (SMN HTRF); for EC1.5x (concentration giving 1.5-fold Smn protein increase): SMA Type 1 patient fibroblast cells (GM03813), 7-point concentration curve, SMN HTRF, concentration producing 1.5 times Smn protein vs DMSO vehicle control, read-out: EC1.5x for Smn protein expression
In short: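 Lysates in RIPA with protease inhibitors are incubated overnight at room temperature with HTRF anti-SMN antibodies. EC1.5x is derived from fold increase in ΔF over vehicle.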

melting point [°C] | Structure (SMILES) | EC (1.5-fold) [1] [µM] | maximum fold (Fold) increase of Smn protein (Smn protein) | EC1.5x (concentration giving 1.5-fold Smn protein increase) (Smn protein) [nM]
202 to 205 | COc1cccn2cc(-c3cc4ccc(N5CCN(C)CC5)cc4oc3=O)nc12 [Compound 403, 3-(8-methoxyimidazo[1,2-a]pyridin-2-yl)-7-(4-methylpiperazin-1-yl)-2H-chromen-2-one] | 3 to 30 | * (maximum fold increase of ≤1.2) | 
198 to 202 | CN1CCN(c2ccc3cc(-c4cn5cccc(C6CC6)c5n4)c(=O)oc3c2)CC1 [Compound 244, 3-(8-cyclopropylimidazo[1,2-a]pyridin-2-yl)-7-(4-methylpiperazin-1-yl)-2H-chromen-2-one] | 0.3 to 1 | * (maximum fold increase of ≤1.2) | 
215 to 218 | Cc1nn2cc(-c3cc4ccc(N5CCCNCC5)cc4oc3=O)nc2s1 [Compound 450, 7-(1,4-diazepan-1-yl)-3-(2-methylimidazo[2,1-b][1,3,4]thiadiazol-6-yl)-2H-chromen-2-one] | 1 to 3 | *** (fold increase between >1.35 and ≤1.5) | 1000 to 3000
275 to 277 | Cc1cn2cc(-c3cc4ccc(N5CCN6CCCCC6C5)cc4oc3=O)nc2cn1 (stereo not shown) [Compound 635, 3-(6-methylimidazo[1,2-a]pyrazin-2-yl)-7-(octahydro-2H-pyrido[1,2-a]pyrazin-2-yl)-2H-chromen-2-one] | < 0.1 | **** (fold increase between >1.5 and ≤1.65) | < 300
265 to 268 | CN1CCN(c2ccc3cc(-c4cn5ccccc5n4)c(=O)oc3c2)CC1 [Compound 72, 3-(imidazo[1,2-a]pyridin-2-yl)-7-(4-methylpiperazin-1-yl)-2H-chromen-2-one] | 0.3 to 1 | *** (fold increase between >1.35 and ≤1.5) | 300 to 1000
196 to 202 | Cc1cn2cc(-c3cc4ccc(O[C@@H]5CCN(C(C)CO)C5)cc4oc3=O)nc2c(C)n1 (stereo partly drawn) [Compound 893, 3-(6,8-dimethylimidazo[1,2-a]pyrazin-2-yl)-7-{[(3R)-1-(1-hydroxypropan-2-yl)pyrrolidin-3-yl]oxy}-2H-chromen-2-one] | < 0.1 | ***** (fold increase >1.65) | < 300
246 to 250 | Cc1cn2cc(-c3cc4ccc(N5CC(N(C)C)C5)cc4oc3=O)nc2c(C)n1 [Cpd 943, 7-[3-(dimethylamino)azetidin-1-yl]-3-(6,8-dimethylimidazo[1,2-a]pyrazin-2-yl)-2H-chromen-2-one] | < 0.1 | **** (fold increase between >1.5 and ≤1.65) | < 300
243 to 253 | Cc1cn2cc(-c3cc4ccc(N5CC[C@H]6CNC[C@H]65)cc4oc3=O)nc2c(C)n1 [Compound 687, 3-(6,8-dimethylimidazo[1,2-a]pyrazin-2-yl)-7-[(3aS,6aS)-hexahydropyrrolo[3,4-b]pyrrol-1(2H)-yl]-2H-chromen-2-one] | < 0.1 | *** (fold increase between >1.35 and ≤1.5) | 1000 to 3000
184 to 186 | C[C@H]1CN(c2ccc3cc(-c4cn5cccc(Cl)c5n4)c(=O)oc3c2)CCN1C [Compound 339, 3-(8-chloroimidazo[1,2-a]pyridin-2-yl)-7-[(3S)-3,4-dimethylpiperazin-1-yl]-2H-chromen-2-one] | 0.1 to 0.3 | * (maximum fold increase of ≤1.2) | 
172 to 176 | CCc1cc(C)cn2cc(-c3cc4ccc(N5CCCN(C)CC5)cc4oc3=O)nc12 [Compound 332, 3-(8-ethyl-6-methylimidazo[1,2-a]pyridin-2-yl)-7-(4-methyl-1,4-diazepan-1-yl)-2H-chromen-2-one] | 0.3 to 1 | * (maximum fold increase of ≤1.2) | 
222 to 226 | O=c1oc2cc(CN3CCNCC3)ccc2cc1-c1nc2c(Cl)cccc2s1 [Compound 7, 3-(4-chloro-1,3-benzothiazol-2-yl)-7-(piperazin-1-ylmethyl)-2H-chromen-2-one] | 3 to 30 | * (maximum fold increase of ≤1.2) | 
> 310 | Cc1cnc2nc(-c3cc4ccc(N5CCN(C)CC5)cc4oc3=O)cn2c1 [Compound 242, 3-(6-methylimidazo[1,2-a]pyrimidin-2-yl)-7-(4-methylpiperazin-1-yl)-2H-chromen-2-one] | 0.3 to 1 | *** (fold increase between >1.35 and ≤1.5) | 
218 to 220 | CCN(CC)C1CN(c2ccc3cc(-c4cn5cc(C)nc(C)c5n4)c(=O)oc3c2)C1 [Compound 944, 7-[3-(diethylamino)azetidin-1-yl]-3-(6,8-dimethylimidazo[1,2-a]pyrazin-2-yl)-2H-chromen-2-one] | < 0.1 | **** (fold increase between >1.5 and ≤1.65) | 300 to 1000
202 to 207 | Cc1cn2cc(-c3cc4ccc(OCCNC(C)C)cc4oc3=O)nc2c(C)n1 [Compound 877, 3-(6,8-dimethylimidazo[1,2-a]pyrazin-2-yl)-7-[2-(propan-2-ylamino)ethoxy]-2H-chromen-2-one] | < 0.1 | *** (fold increase between >1.35 and ≤1.5) | 300 to 1000
206 to 208 | Cc1cn2cc(-c3cc4ccc(N5CC[C@@H](N(C)C)C5)cc4oc3=O)cc2cn1 [Compound 693, 7-[(3R)-3-(dimethylamino)pyrrolidin-1-yl]-3-(3-methylpyrrolo[1,2-a]pyrazin-7-yl)-2H-chromen-2-one] | < 0.1 | **** (fold increase between >1.5 and ≤1.65) | 300 to 1000
257 to 264 | C[C@@H]1CN(c2ccc3cc(-c4cn5ccc(C(F)(F)F)cc5n4)c(=O)oc3c2)C[C@H](C)N1 [Compound 116, 7-[(3R,5S)-3,5-dimethylpiperazin-1-yl]-3-[7-(trifluoromethyl)imidazo[1,2-a]pyridin-2-yl]-2H-chromen-2-one] | 0.3 to 1 | ** (fold increase between >1.2 and ≤1.35) | 
288 to 290 | Cc1cn2cc(-c3cc4ccc(N5CCNCC5)cc4oc3=O)nc2cn1 [Compound 567, 3-(6-methylimidazo[1,2-a]pyrazin-2-yl)-7-(piperazin-1-yl)-2H-chromen-2-one] | < 0.1 | ***** (fold increase >1.65) | < 300
253 to 262 | O=c1oc2cc(N3CCCNCC3)ccc2cc1-c1cn2ccc(C(F)(F)F)cc2n1 [Compound 275, 7-(1,4-diazepan-1-yl)-3-[7-(trifluoromethyl)imidazo[1,2-a]pyridin-2-yl]-2H-chromen-2-one] | 0.3 to 1 | * (maximum fold increase of ≤1.2) | 
